Measurements published in patent US20240383882A1 (Ecstasy LLC, priority 2020, published 2024).
Where two headings read alike, the source gives them in different places.

System: male C57BL/6 mice
Assay: 55° C. warm-water tail-flick test (antinociception)
Assay type: in vivo
Details: Mus musculus
Summary of the method: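 Mice with baseline tail-flick latency within 2 s at 55° C received compound s.c. and were retested at 30, 60, 90 and 120 min. % antinociception = 100×(test−control latency)/(20−control latency); ED50 in mg/kg.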

[1] = half maximal effective dose in mice, using one of: warm water tail-flick test, spared nerve injury, chronic constriction injury, or Complete Freund's adjuvant induced inflammatory pain (not stated which per compound), read-out: Biological Activity (ED50)
[2] = sc, 0.5 h, compounds of Table I, s.c., 30 min, 55° C. water, configuration tested as in Table II, read-out: ED50 (mg/kg) at 30 min on C57BL/6 mice in Warm-water Tail-flick Test

SMILES | ED50 [1] | other results
CC(C)(c1ccccn1)N1CC[C@@](CCc2ccc(F)c(F)c2)(C(O)C(F)(F)F)C1 (single isomer, unassigned) [Compound 150, (R or S)-1-((R)-3-(3,4-difluorophenethyl)-1-(2-(pyridin-2-yl)propan-2-yl)pyrrolidin-3-yl)-2,2,2-trifluoroethan-1-ol] | ≤ 30 mg/kg | –
CC(C)(c1ccccn1)N1CC[C@](CO)(CCc2ccc(F)c(F)c2)C1 [Compound 146, (R)-(3-(3,4-difluorophenethyl)-1-(2-(pyridin-2-yl)propan-2-yl)pyrrolidin-3-yl)methanol] | > 50 mg/kg | –
Cc1ccc(C(C)(C)N2CCC(CCc3ccc(F)s3)(CNS(=O)(=O)C(C)C)C2)cn1 (single isomer, unassigned) [Compound 320] | – | ED50 [2]: ≤ 30 mg/kg
CC(C)(c1ccccn1)N1CC[C@](CCc2ccc(C#N)cc2)(c2ncc[nH]2)C1 [Compound 225, (S)-4-(2-(3-(1H-imidazol-2-yl)-1-(2-(pyridin-2-yl)propan-2-yl)pyrrolidin-3-yl)ethyl) benzonitrile] | > 50 mg/kg | –
CC1(C)COC1[C@]1(CCc2ccc(C#N)cc2)CCN(Cc2ccccn2)C1 (single isomer, unassigned) [Compound 192, 4-(2-((R)-3-((R or S)-3,3-dimethyloxetan-2-yl)-1-(pyridin-2-ylmethyl)pyrrolidin-3-yl)ethyl) benzonitrile] | ≤ 30 mg/kg | –
Cc1ccc(C(C)(C)N2CCC(CCc3ccc(F)s3)(CN3CCOCC3)C2)cn1 (single isomer, unassigned) [Compound 106] | – | ED50 [2]: ≤ 30 mg/kg
CCOC[C@@]1(CCc2ccc(S(C)(=O)=O)cc2)CCN(C(C)(C)c2ccccc2)C1 [Compound 200, (S)-3-(ethoxymethyl)-3-(4-(methylsulfonyl)phenethyl)-1-(2-phenylpropan-2-yl)pyrrolidine] | ≤ 30 mg/kg | –
CC(C)(c1ccccn1)N1CC[C@](C#N)(CCc2ccc(F)c(F)c2)C1 [Compound 175, (R)-3-(3,4-difluorophenethyl)-1-(2-(pyridin-2-yl)propan-2-yl)pyrrolidine-3-carbonitrile] | > 50 mg/kg | –
Cc1ccc(C(C)(C)N2CCC(CCc3ccc(F)s3)(CNC(=O)NC(C)C)C2)cn1 (single isomer, unassigned) [Compound 42] | – | ED50 [2]: ≤ 30 mg/kg
Cc1ccc(C(C)(C)N2CCC(CCc3cccs3)(COC(F)F)C2)cn1 (single isomer, unassigned) [Compound 82, (R or S)-5-(2-(3-((difluoromethoxy)methyl)-3-(2-(thiophen-2-yl)ethyl)pyrrolidin-1-yl)propan-2-yl)-2-methylpyridine citarte] | – | ED50 [2]: ≤ 30 mg/kg
CC(C)(c1ccccn1)N1CC[C@@](CCc2ccc(C#N)cc2)(CNC2(C(F)(F)F)CC2)C1 [Compound 203, (S)-4-(2-(1-(2-(pyridin-2-yl)propan-2-yl)-3-(((1-(trifluoromethyl)cyclopropyl)amino)methyl)pyrrolidin-3-yl)ethyl) benzonitrile] | > 50 mg/kg | –
CCOC(C(F)(F)F)(C(F)(F)F)[C@]1(CCc2ccc(C#N)cc2)CCN(C(C)(C)c2ccccn2)C1 [Compound 137, (R)-4-(2-(3-(2-ethoxy-1,1,1,3,3,3-hexafluoropropan-2-yl)-1-(2-(pyridin-2-yl)propan-2-yl)pyrrolidin-3-yl)ethyl) benzonitrile] | > 50 mg/kg | –
COc1cccc(C(C)(C)N2CC[C@](CO)(CCc3ccc(C#N)cc3)C2)c1 [Compound 142, (R)-4-(2-(3-(hydroxymethyl)-1-(2-(3-methoxyphenyl)propan-2-yl)pyrrolidin-3-yl)ethyl) benzonitrile] | > 50 mg/kg | –
CC(C)(c1ccccn1)N1CC[C@@](CCc2ccc(C#N)s2)(COCc2ccccc2)C1 [Compound 141, (R)-5-(2-(3-((benzyloxy)methyl)-1-(2-(pyridin-2-yl)propan-2-yl)pyrrolidin-3-yl)ethyl)thiophene-2-carbonitrile] | ≤ 30 mg/kg | –
CC(C)(c1ccccn1)N1CC[C@](CN)(CCc2ccc(C#N)cc2)C1 [Compound 115, (S)-4-(2-(3-(aminomethyl)-1-(2-(pyridin-2-yl)propan-2-yl)pyrrolidin-3-yl)ethyl) benzonitrile] | > 50 mg/kg | –
COC[C@@]1(CCc2ccccc2)CCN(N(C)c2ccc(C)nc2)C1 (single isomer, unassigned) [Compound 69] | > 50 mg/kg | –
CC(C)(c1ccccn1)N1CC[C@@](CCc2ccc3ccoc3c2)(C(N)=O)C1 [Compound 174, (R)-3-(2-(benzofuran-6-yl)ethyl)-1-(2-(pyridin-2-yl)propan-2-yl)pyrrolidine-3-carboxamide] | ≤ 30 mg/kg | –
CC(C)(c1ccc(Cl)cc1)N1CC[C@](CCc2ccc(S(C)(=O)=O)cc2)(C(O)C(F)(F)F)C1 (single isomer, unassigned) [Compound 98, (R or S)-1-((S)-1-(2-(4-chlorophenyl)propan-2-yl)-3-(4-(methylsulfonyl)phenethyl)pyrrolidin-3-yl)-2,2,2-trifluoroethan-1-ol] | ≤ 30 mg/kg | –
Cc1ccc(S(=O)(=O)NCC2(CCc3cc(C)c(C)s3)CCN(C(C)(C)c3ccc(C)nc3)C2)cc1 (single isomer, unassigned) [Compound 126] | – | ED50 [2]: ≤ 30 mg/kg
CCOC[C@]1(CCc2ccc(C#N)cc2)CCN(C(C)c2ccnnc2)C1 (stereo partly drawn) [Compound 25, 4-(2-((3R)-3-(ethoxymethyl)-1-(1-(pyridazin-4-yl)ethyl)pyrrolidin-3-yl)ethyl)benzonitrile] | ≤ 30 mg/kg | –
CC(C)(c1ccccn1)N1CC[C@@](CCc2ccc3ccoc3c2)(c2c[nH]nn2)C1 [Compound 191, (R)-2-(2-(3-(2-(benzofuran-6-yl)ethyl)-3-(1H-1,2,3-triazol-4-yl)pyrrolidin-1-yl)propan-2-yl)pyridine] | > 50 mg/kg | –
CCOC(C(F)(F)F)(C(F)(F)F)[C@]1(CCc2ccc(C#N)cc2)CCN(C(C)(C)c2ccns2)C1 [Compound 22, (R)-4-(2-(3-(2-ethoxy-1,1,1,3,3,3-hexafluoropropan-2-yl)-1-(2-(isothiazol-5-yl)propan-2-yl)pyrrolidin-3-yl)ethyl) benzonitrile] | ≤ 30 mg/kg | –
CC(C)(c1ccc(Cl)cc1)N1CC[C@](CO)(CCc2ccc(S(C)(=O)=O)cc2)C1 [Compound 35, (R)-(1-(2-(4-chlorophenyl)propan-2-yl)-3-(4-(methylsulfonyl)phenethyl)pyrrolidin-3-yl)methanol] | > 50 mg/kg | –
CCOCC1(CCc2ccccc2)CCN(C(C)(C)c2ccc(-c3cn[nH]n3)cc2)CC1 [Compound 5] | – | ED50 (sc, 0.5 h, compounds of Table V, s.c., 30 min, 55° C. water, read-out: ED50 (mg/kg) at 30 min on C57BL/6 mice in Warm-water Tail-flick Test (same conditions as Table II)): ≤ 30 mg/kg
CC(C)(c1ccccn1)N1CC[C@@](CCc2ccc(C#N)s2)(C(O)C(F)(F)F)C1 (single isomer, unassigned) [Compound 152, 5-(2-((R)-1-(2-(pyridin-2-yl)propan-2-yl)-3-((R or S)-2,2,2-trifluoro-1-hydroxyethyl)pyrrolidin-3-yl)ethyl)thiophene-2-carbonitrile] | ≤ 30 mg/kg | –
CC(C)(c1ccccn1)N1CC[C@@](CCc2ccc(C#N)cc2)(C(O)c2ccccc2)C1 (single isomer, unassigned) [Compound 57] | ≤ 30 mg/kg | –
CC(C)c1nc(C(C)(C)N2CC[C@@](CCc3ccc(C#N)cc3)(C3CCCO3)C2)cs1 (single isomer, unassigned) [Compound 30, 4-(2-((R)-1-(2-(2-isopropylthiazol-4-yl)propan-2-yl)-3-((R or S)-tetrahydrofuran-2-yl)pyrrolidin-3-yl)ethyl) benzonitrile] | > 50 mg/kg | –
CCOC[C@]1(CCc2ccc(F)cc2)CCN(Cc2cccnc2C(N)=O)C1 [Compound 5] | > 50 mg/kg | –
